The source of these data is publication PMC9780888, “4-Isobutylmethcathinone—A Novel Synthetic Cathinone with High In Vitro Cytotoxicity and Strong Receptor Binding Preference of Enantiomers” (Pharmaceuticals, 2022).

The test has as its target T1, dopamine receptor DAR4 (Homo sapiens, UniProt P21917).
T1 construct: host or cells: HTLA (HEK 293-derived)
T1 sequence (P21917 1-419): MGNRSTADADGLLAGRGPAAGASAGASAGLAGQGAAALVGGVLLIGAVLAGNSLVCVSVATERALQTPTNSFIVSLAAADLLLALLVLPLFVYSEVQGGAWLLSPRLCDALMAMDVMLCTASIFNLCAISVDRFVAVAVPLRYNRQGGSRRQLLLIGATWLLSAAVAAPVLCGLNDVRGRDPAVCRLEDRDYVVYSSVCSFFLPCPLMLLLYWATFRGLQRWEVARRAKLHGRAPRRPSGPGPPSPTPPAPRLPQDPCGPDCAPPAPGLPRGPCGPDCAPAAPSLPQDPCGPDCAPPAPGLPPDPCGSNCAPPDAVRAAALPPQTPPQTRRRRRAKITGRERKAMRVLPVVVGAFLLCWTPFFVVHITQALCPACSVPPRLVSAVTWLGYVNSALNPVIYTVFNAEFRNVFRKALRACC
In words: PRESTO-Tango β-arrestin 2 recruitment assay, DAR4. It is filed as cell-based. Particulars: DAR4, 0-500 nM. The text has this:
However, binding to a specific receptor/transporter and, thus, the mechanism of action of a given cathinone always depends on the specific structure of the evaluated compound [37]. In this study, the binding activity of IBMcat and its enantiomers was verified by PRESTO-Tango (parallel receptor expression and screening via transcriptional output, with transcriptional activation following arrestin-2 translocation) assay using the HTLA cell line stably producing β-arrestin-2 in a fusion with TEV and luciferase production driven by tTA. For this purpose, the HTLA cells were transiently transfected with plasmid DNA encoding the dopamine receptors type 1-4 (DAR1-4), which also contain the TEV protease cleavage site followed by tTA at the 3’-end (DAR1-Tango, DAR2-Tango, DAR3-Tango, DAR4-Tango). In the case of the receptor activation by a ligand, in transfected cells, the receptor is desensitized by β-arrestin fused to TEV protease. This brings the TEV protease close to the site that specifically cleaves and, thus, the transcription factor can be cleaved. The transcription factor then translocates to the cell nucleus, in which it triggers the transcription of the target gene for luciferase production which can be determined by the light emitted from luciferin conversion to oxyluciferin. Here, the pronounced luminescence was recorded for all DAR1-4 types in HTLA cells treated with IBMCat and its enantiomers (Figure 8).
The HTLA cell line was used for the PRESTO-Tango β-arrestin recruitment assay. […]
The transfected HTLA cells were incubated for 24 h, and then 1 × 10^4 cells were seeded per well of a white 96-well clear bottom plate (Brand, Germany) in 40 μL of DMEM with 1% charcoal-stripped FBS (Thermo Fisher Scientific, USA). […] After 5 min., the luminescence was measured using a multi-mode microplate reader SpectraMax iD5 (Molecular Devices, San Jose, CA, USA) measuring the entire wavelength spectrum. All samples were measured in quadruplicates. The data were evaluated by Prism 7 software (GraphPad, San Jose, CA, USA).
A general note: Recruitment of arrestin is a read-out of receptor activation apart from second messengers.

Counter-ions that a name gives are not always drawn.

For the compound `CN[C@H](C)C(=O)c1ccc(CC(C)C)cc1` [R-IBMCat], the “maximum increase in RLU compared to untreated control” value was determined as 1.5 fold.
Take `CNC(C)C(=O)c1ccc(CC(C)C)cc1.Cl` (stereo not drawn) [IBMcat, 4-isobutylmethcathinone hydrochloride]: the “maximum increase in RLU compared to untreated control” value is on record as 2 fold.
The value for `CN[C@@H](C)C(=O)c1ccc(CC(C)C)cc1` [S-IBMCat, (S)-4-isobutylmethcathinone hydrochloride] was 2 fold.
